In patent US8791132B2, “Compounds and methods for treatment of hypertension” (Medivation Technologies, Inc., priority 2011, dated 2014):
Like-named read-outs stand apart in the source and are kept apart here.

Columns and labels:
[1] = molecular target: T1, human recombinant adrenergic α2B receptor (Homo sapiens, UniProt P18089); assay: Radioligand binding, adrenergic α2B ([3H]Rauwolscine); conditions: [3H]Rauwolscine
T1 construct: expressed in transfected cells; host or cells: CHO-K1
T1 sequence (P18089 1-450): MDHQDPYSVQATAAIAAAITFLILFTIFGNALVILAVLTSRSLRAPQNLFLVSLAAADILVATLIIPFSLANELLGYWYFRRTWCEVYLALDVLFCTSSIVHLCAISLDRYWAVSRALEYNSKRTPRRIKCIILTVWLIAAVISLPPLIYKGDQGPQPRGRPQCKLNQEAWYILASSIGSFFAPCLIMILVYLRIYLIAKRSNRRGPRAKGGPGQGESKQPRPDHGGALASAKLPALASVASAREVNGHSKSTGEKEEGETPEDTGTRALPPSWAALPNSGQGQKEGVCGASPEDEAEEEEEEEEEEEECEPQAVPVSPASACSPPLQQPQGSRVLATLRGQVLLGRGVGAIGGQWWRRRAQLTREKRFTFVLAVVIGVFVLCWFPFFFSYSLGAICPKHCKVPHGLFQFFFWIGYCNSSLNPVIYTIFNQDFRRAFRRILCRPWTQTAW
Method in brief: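 Receptor expressed in CHO-K1 cells, assayed in 50 mM Tris-HCl pH 7.4 with 12.5 mM MgCl2, 1 mM EDTA and 0.2% BSA. Compounds were incubated with 2.5 nM [3H]Rauwolscine for 60 min at 25° C; 10 μM Prazosin defined non-specific binding. Filter counting gave percent inhibition of specific binding.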

[2] = molecular target: T2, rat adrenergic α1B receptor (Rattus norvegicus, UniProt P15823); assay: Radioligand binding, adrenergic α1B ([3H]Prazosin); conditions: [3H]Prazosin; for Percentage inhibition of ligand binding, Adrenergic α1B (0.1 μM) / Percentage inhibition of ligand binding, Adrenergic α1B: 0.1 µM
T2 construct: rat adrenergic α1B receptor obtained from Wistar Rat liver; from tissue; host or cells: Wistar rat liver
T2 sequence (P15823 1-515): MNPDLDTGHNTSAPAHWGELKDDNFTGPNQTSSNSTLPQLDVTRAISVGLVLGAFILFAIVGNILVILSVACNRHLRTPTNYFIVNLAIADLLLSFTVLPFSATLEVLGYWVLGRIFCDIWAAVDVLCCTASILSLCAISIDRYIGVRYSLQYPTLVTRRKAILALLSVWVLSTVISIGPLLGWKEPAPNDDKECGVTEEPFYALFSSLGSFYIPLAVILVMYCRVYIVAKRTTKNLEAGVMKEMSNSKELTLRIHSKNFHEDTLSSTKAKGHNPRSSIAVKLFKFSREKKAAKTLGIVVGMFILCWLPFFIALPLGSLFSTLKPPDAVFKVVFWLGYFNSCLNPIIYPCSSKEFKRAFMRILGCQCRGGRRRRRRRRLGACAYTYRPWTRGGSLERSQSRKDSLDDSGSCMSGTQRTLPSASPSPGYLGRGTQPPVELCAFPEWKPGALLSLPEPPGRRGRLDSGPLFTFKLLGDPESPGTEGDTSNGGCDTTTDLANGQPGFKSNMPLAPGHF
Method in brief: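 Filter binding with Wistar rat liver α1B preparation: test compound plus 0.25 nM [3H]prazosin, 1 h at 25° C in modified Tris-HCl buffer pH 7.4.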

[3] = molecular target: T3, human recombinant adrenergic α2A receptor (Homo sapiens, UniProt P08913); assay: Radioligand binding, adrenergic α2A ([3H]MK-912); conditions: [3H]MK-912
T3 construct: expressed in transfected cells; host or cells: insect Sf9 cells
T3 sequence (P08913 1-465): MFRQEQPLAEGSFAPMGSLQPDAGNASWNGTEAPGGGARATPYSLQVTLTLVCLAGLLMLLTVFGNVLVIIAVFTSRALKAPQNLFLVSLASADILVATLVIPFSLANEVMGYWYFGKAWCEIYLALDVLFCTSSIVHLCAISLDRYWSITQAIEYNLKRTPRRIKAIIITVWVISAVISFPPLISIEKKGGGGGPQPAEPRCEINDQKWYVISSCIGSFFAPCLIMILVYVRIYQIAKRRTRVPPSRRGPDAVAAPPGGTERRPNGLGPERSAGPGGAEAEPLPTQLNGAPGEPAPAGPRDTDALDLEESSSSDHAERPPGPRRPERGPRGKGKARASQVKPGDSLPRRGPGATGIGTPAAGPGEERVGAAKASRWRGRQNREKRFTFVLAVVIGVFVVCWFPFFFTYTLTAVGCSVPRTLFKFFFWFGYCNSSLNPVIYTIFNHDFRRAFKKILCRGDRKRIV
Method in brief: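 Receptor expressed in insect Sf9 cells, assayed in 50 mM Tris-HCl pH 7.4 with 12.5 mM MgCl2 and 2 mM EDTA. Compounds incubated with 1 nM [3H]MK-912 for 60 min at 25 °C; nonspecific binding defined with 10 μM WB-4101. Filter-bound radioactivity counted; values are percent inhibition of specific binding.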

[4] = read-out: Percentage inhibition of ligand binding, Adrenergic α2B (0.03 μM), compound at 0.03 μM, repeat datapoints each shown
[5] = compound at 0.1 μM, repeat datapoints each shown
[6] = read-out: Percentage inhibition of ligand binding, Adrenergic α2A (0.1 μM), compound at 0.1 μM, repeat datapoints each shown
[7] = compound at 0.03 μM, repeat assays, each datapoint shown, 0.03 µM
[8] = compound at 0.1 μM, repeat assays, each datapoint shown
[9] = compound at 0.1 μM, repeat assays, each datapoint shown, 0.1 µM
[10] = compound at 0.03 μM, repeat assays, each datapoint shown, read-out: Percentage inhibition of ligand binding, Adrenergic α2B
[11] = compound at 0.1 μM, repeat assays, each datapoint shown, read-out: Percentage inhibition of ligand binding, Adrenergic α1B
[12] = compound at 0.1 μM, repeat assays, each datapoint shown, read-out: Percentage inhibition of ligand binding, Adrenergic α2A
[13] = read-out: Percentage inhibition of ligand binding, Adrenergic α1B (0.1 μM), compound at 0.1 μM, repeat datapoints each shown

`Cc1ccc2c(c1)c1c(n2CC(N=[N+]=[N-])c2ccc(F)cc2F)CCN(C)CC1` (single isomer, unassigned) [V-21a, 6-(2-azido-2-(2,4-difluorophenyl)ethyl)-3,9-dimethyl-1,2,3,4,5,6-hexahydroazepino[4,5-b]indole] was tested, and the inhibition at 0.03 µM [1, 4] was 98%, the “Percentage inhibition of ligand binding, Adrenergic α1B (0.1 μM)” value [2, 5] was 68% and the inhibition at 0.1 µM [3, 6] was 62%.

`Cc1ccc2c(c1)c1c(n2CC(N=[N+]=[N-])c2ccc(F)cc2F)CCN(C)CC1` (single isomer, unassigned) [V-21b, 6-(2-azido-2-(2,4-difluorophenyl)ethyl)-3,9-dimethyl-1,2,3,4,5,6-hexahydroazepino[4,5-b]indole] was tested, and the “Percentage inhibition of ligand binding, Adrenergic α2B (0.03 μM)” value ([1]; compound at 0.03 μM, repeat datapoints each shown, 0.03 µM) was 93%, the “Percentage inhibition of ligand binding, Adrenergic α1B (0.1 μM)” value [2, 5] was 34% and the “Percentage inhibition of ligand binding, Adrenergic α2A (0.1 μM)” value ([3]; compound at 0.1 μM, repeat datapoints each shown, 0.1 µM) was 43%.

With `Cc1ccc2c(c1)c1c(n2CC(O)c2ccncc2)CN(C)CC1` (stereo not drawn) [8a] the “Percentage inhibition of ligand binding, Adrenergic α2B” value [1, 7] was 22%, the “Percentage inhibition of ligand binding, Adrenergic α1B” value [2, 8] was 39% and the “Percentage inhibition of ligand binding, Adrenergic α2A” value [3, 9] was 15%.

`Cc1ccc2c(c1)c1c(n2CC(C)(O)c2cccnc2)CN(C)CC1` (stereo not drawn) [14b, 1-(2,6-dimethyl-1,2,3,4-tetrahydro-β-carbolin-9-yl)-2-pyridin-3-yl-propan-2-ol] gave an inhibition at 0.03 µM [1, 10] of 14%, an inhibition at 0.1 µM [2, 11] of 25% and an inhibition at 0.1 µM [3, 12] of -6%.

`Cc1ccc2c(c1)c1c(n2CC(C)(O)c2ccc(C)nc2)CCN(C)C1` (stereo not drawn) [29b] was tested, and the inhibition at 0.03 µM [1, 10] was 46%, the “Percentage inhibition of ligand binding, Adrenergic α1B” value [2, 8] was 14% and the “Percentage inhibition of ligand binding, Adrenergic α2A” value [3, 8] was 10%.

In the case of `CN1CCc2c(c3cc(Cl)ccc3n2CC(C)(O)c2cccnc2)C1` (stereo not drawn) [31b], the inhibition at 0.03 µM [1, 10] was 36%, the inhibition at 0.1 µM [2, 11] was 3% and the inhibition at 0.1 µM [3, 12] was 14%.

`CCC(O)(Cn1c2c(c3cc(C)ccc31)CN(C)CC2)c1ccncc1` (stereo not drawn) [35a] was tested, and the inhibition at 0.1 µM ([1]; compound at 0.1 μM, repeat assays, each datapoint shown, read-out: Percentage inhibition of ligand binding, Adrenergic α2B) was 62%, the inhibition at 0.1 µM [2, 11] was 9% and the inhibition at 0.1 µM [3, 12] was 20%.

`Cc1ccc2c(c1)c1c(n2CC(O)c2cc[n+]([O-])cc2)CCN(C)C1` (stereo not drawn) [69a] was tested, and the inhibition at 0.03 µM [1, 10] was 10%, the inhibition at 0.1 µM [2, 11] was 4% and the inhibition at 0.1 µM [3, 12] was 11%.

With `Cc1ccc2c(c1)c1c(n2CC(O)c2cc[n+]([O-])cc2)CCN(C)C1` (stereo not drawn) [69b] the “Percentage inhibition of ligand binding, Adrenergic α2B” value [1, 7] was 19%, the “Percentage inhibition of ligand binding, Adrenergic α1B” value [2, 8] was 8% and the “Percentage inhibition of ligand binding, Adrenergic α2A” value [3, 9] was 7%.

`Cc1ccc2c(c1)c1c(n2C(C)C(O)c2ccncc2)CCN(C)C1` (stereo not drawn) [127b] showed an inhibition at 0.03 µM [1, 4] of 1%, an inhibition at 0.1 µM [2, 13] of 13% and an inhibition at 0.1 µM [3, 6] of 4%.

For `Cc1ccc2c(c1)c1c(n2CC(C)(O)c2cccnc2)CNCC1` (stereo not drawn) [128b], the inhibition at 0.03 µM [1, 4] was 54%, the inhibition at 0.1 µM [2, 13] was 45% and the inhibition at 0.1 µM [3, 6] was 22%.
